Data: patent publication US7339061B2, “3-(4-oxo-4H-chromen-2-yl)-(1H)-quinolin-4-one derivatives, method for preparing same and pharmaceutical compositions containing same” (Les Laboratoires Servier, priority 2002, dated 2008)

What was measured:
lung cancer cells = experiment: In vitro synergistic effect with anti-cancer agent (MTT test, Chou and Talabay analysis), lung cancer cells; assay type: cell-based; conditions: 96 hours, five concentrations of compound and of cisplatin (CDDP)
Procedure: (§1) Three cell lines which are sensitive to three anti-cancer agents are used: breast cancer cells in association with treatment with tamoxifen (TXL), lung cancer cells in association with treatment with cisplatin (CDDP), and colon cancer cells in association with treatment with SN38, a metabolite of CPT-11 (irinotecan).
(§2) The tumour cells are incubated for 96 hours together with five different concentrations of each of the compounds of the invention and five concentrations of each of the anti-cancer agents in association.
(§3) The in vitro cytotoxic activity is determined by the MTT test described in Example 24. Analysis of the data is carried out according to the method of Chou and Talabay, published in Trends Pharmaceutical Sci.—1983; 4:450.

breast cancer cells = experiment: In vitro synergistic effect with anti-cancer agent (MTT test, Chou and Talabay analysis), breast cancer cells; assay type: cell-based; conditions: 96 hours, five concentrations of compound and of anti-cancer agent; method names tamoxifen (TXL) on breast cancer cells
Procedure: as §1, §2, §3

[1] = test system: Eleven cell lines from cancers of different origins and sites (lung, breast, prostate, colon, blood, bladder, skin, ovary, brain); experiment: In vitro cytotoxicity, MTT test, 96 hours incubation; assay type: cell-based; conditions: lines to which the stated IC50 range applies
Procedure: Eleven cell lines from cancers of different origins and sites (lung, breast, prostate, colon, blood, bladder, skin, ovary, brain) are cultured in order to study the various compounds in comparison to the reference substance.
The cells are incubated for 96 hours with various concentrations of compounds of the invention.
The in vitro cytotoxic activity is determined by the MTT [3-(4,5-dimethylthiazol-2-yl)-2,5-diphenyltetrazolium bromide] test as described by Carmichael in Cancer Res.—1987; 47 (4): 936-942.
The activity is expressed in terms of the IC50, that is to say the concentration which inhibits proliferation of the tumour cells by 50%.

[2] = test system: prostate cancer line (LN CaP); experiment: Apoptotic effect, TUNEL test; assay type: cell-based; conditions: LN CaP cells incubated at the IC50 concentration, 8 to 96 hours; early = 8 hours
Procedure: Study of the pro-apoptotic effects of compounds of the invention is carried out on a prostate cancer line (LN CaP). The cells were incubated for periods ranging from 8 to 96 hours at the IC50 concentration.
The TUNEL test was then carried out according to the method described by Sgonc in Trends Genetics—1994; 10:41.

Molecule `O=c1cc(-c2cn(-c3ccccc3)c3ccccc3c2=O)oc2ccccc12` [Example 8, 3-(4-Oxo-4H-1-benzopyran-2-yl)-1-phenyl-1H-quinolin-4-one] has a melting point of 327 to 328 °C.

In the case of `O=c1cc(-c2cn(-c3ccccc3)c3ccccc3c2=O)oc2cc(O)ccc12` [Example 2, 3-(7-Hydroxy-4-oxo-4H-1-benzopyran-2-yl)-1-phenyl-1H-quinolin-4-one], the melting point is reported as 295 to 300 °C.

In the case of `O=c1c(-c2cc(=O)c3c(O)cc(O)c(C4=CCN(Cc5ccccc5)CC4)c3o2)cn(-c2ccccc2)c2ccccc12` [Example 16, 3-[5,7-Dihydroxy-8-(1-benzyl-1,2,5,6-tetrahydropyridin-4-yl)-4-oxo-4H-1-benzopyran-2-yl]-1-phenyl-1H-1,4-dihydroquinolin-4-one], the “synergistic effect with cisplatin” value (lung cancer cells) is reported as “synergistic effect” and the “synergistic effect with paclitaxel” value (breast cancer cells) is reported as “synergistic effect”.

For `COc1cc(OC)c2c(=O)cc(-c3cn(-c4ccccc4)c4ccccc4c3=O)oc2c1C1=CCN(C)CC1` [Example 9, 3-[5,7-Dimethoxy-8-(1-methyl-1,2,5,6-tetrahydropyridin-4-yl)-4-oxo-4H-1-benzopyran-2-yl]-1-phenyl-1H-1,4-dihydroquinolin-4-one], the “number of the 11 lines tested with respect to which the compound has cytotoxic activity” value [1] was 8 of the 11.

With `O=c1c(-c2cc(=O)c3c(O)cccc3o2)cn(-c2ccccc2)c2ccccc12` [Example 6, 3-(5-Hydroxy-4-oxo-4H-1-benzopyran-2-yl)-1-phenyl-1H-quinolin-4-one] the melting point was greater than 300 °C and the “apoptosis (TUNEL test)” value [2] was “very high apoptosis”.

In the case of `CN1CC=C(c2c(O)cc(O)c3c(=O)cc(-c4cn(-c5ccccc5)c5ccccc5c4=O)oc23)CC1` [Example 14, 3-[5,7-Dihydroxy-8-(1-methyl-1,2,5,6-tetrahydropyridin-4-yl)4-oxo-4H-1-benzopyran-2-yl]-1-phenyl-1H-1,4-dihydroquinolin-4-one], the “synergistic effect with cisplatin” value (lung cancer cells) is reported as “synergistic effect”, the “synergistic effect with paclitaxel” value (breast cancer cells) is reported as “synergistic effect” and the “number of the 11 lines tested with respect to which the compound has cytotoxic activity” value [1] is reported as 5 of the 11.

`COc1cc(O)c2c(=O)cc(-c3cn(-c4ccccc4)c4ccccc4c3=O)oc2c1` [Example 7, 3-(5-Hydroxy-7-methoxy-4-oxo-4H-1-benzopyran-2-yl)-1-phenyl-1H-quinolin-4-one] showed a melting point of 295 to 296 °C.
